Assay results published in patent US7781580B2, “Stilbene derivatives as new cancer therapeutic agents” (Virginia Commonwealth University, priority 2007, dated 2010).
Read-outs that look alike come from different tables or passages of the source.

Experiments:
[1] = system: c-kit positive marrow progenitor cells; experiment: bone marrow c-kit-positive progenitor cells: cell cycle and colony forming assay; type: cell-based
Method: FIG. 16. (a) Effect of stilbenes in normal bone marrow progenitor cells. c-kit-positive bone marrow mononuclear cells were isolated for incubation with stilbenes 4a or 4c at 0.1 or 0.5 […] for 16 hours. Cells were harvested for fixation and PI staining. Cell cycle analysis and quantification of the subG0/1 population were analyzed by FACScan flow cytometry. The percentages of the apoptotic population were indicated. Shown are the representatives of two independent experiments. (b) Effect of stilbenes in HL60 cells as positive control. HL60 cells were treated with stilbenes 4a or 4c in the same medium as the positive control. (c) Colony forming assay of the stilbene-treated c-kit-positive cells. A fraction of the cells in (a) were diluted and plated on methylcellulose medium at various densities. Cells were incubated for 14 days and the grossly visible colonies were counted. […] Isolated bone marrow c-kit-positive progenitor cells were incubated with DMSO or stilbenes 4a or 4c at 0.1 or 0.5 μM for 16 hours and injected into tail veins of CD45 congenic mice lethally irradiated with 1200 cGy. Mice were monitored for survival and lineage-specific donor engraftment by flow cytometry analysis of peripheral blood. The percentage of donor cells in T, B, and granulocytic series of the recipients were studied at 7 and 14 weeks after transplantation. Stilbene treated c-Kit progenitor cells had the same percentage as the DMSO treated control in all series.
Mouse bone marrow was harvested from femur and tibia of […], subjected to red blood cell lysis, and labeled with anti-c-kit (3C11; CALTAG Laboratories, Burlingame, Calif.) and streptavidin-conjugated microbeads for MACS separation (Miltenyi Biotech, Auburn, Calif.). The c-kit positive marrow progenitor cells were incubated in Iscove's Modified Eagle's Media supplemented with 30% fetal bovine serum, erythropoietin, stem cell factor and interleukin-3 with or without stilbenes 4a or 4c. The ability of long-term proliferation of the c-kit-positive cells was evaluated with colony forming assay. Cells were first treated with DMSO, stilbenes 4a or 4c for 5 h and a fraction of the cells (4000 cells) were plated in the same enriched culture media with methylcellulose for colony forming assays. The grossly visible colonies were counted after 14 days of incubation.

[2] = acute toxicity in dose escalating study; type: in vivo, mice; details: 100 mg/kg intraperitoneally
Method: Acute toxicity in dose escalating study: We investigated the efficacy of stilbene 4a in vivo using mouse xenograft model. First we determined the maximal tolerated dose of stilbene 4a since it has a higher potency in vitro. […] Subsequently mice fully recovered 30 min after injection.

[3] = system: MDA-MB231 breast cancer cells; experiment: cell cycle analysis, MDA-MB231; type: cell-based; details: 16 hours
Method: Cells were treated with various concentrations of stilbene 4a or CA4 for 16 hours followed by PI staining and FACscan analysis. […] A unique feature of stilbene 4a was noted when cells were treated with 30 nM.
(§1) Due to the structural similarity between stilbene 4a and CA4, we investigated the difference in the biological activity of these two compounds in MDA-MB231 breast cancer cells and their Chk2−/− derivatives. […] MDA-MB231 cells were treated with 10 nM stilbene 4a or 1 nM CA4. […] However, a difference in cell cycle change was observed following treatment with 30 nM of stilbene 4a versus 3 nM of CA4. […] This was also the case for cells treated with 100 nM stilbene 4a. A significant subG1/0 population was also noted. […] One possible effect could be a DNA damage response, which is a common mechanism of multiple chemotherapeutic agents but not one of pure microtubule-interfering agents such a paclitaxel or vincristine. […] We then obtained conditional Chk1−/− and Chk2−/− cells, which were derived from the same MDA-MB231 cells for the same flow cytometry analysis. […] In contrast, Chk2−/− cells were more sensitive to stilbene 4a. […] This mechanism is not obvious in higher drug concentrations at which the G2 arrest from microtubule interference is dominant. Therefore, in addition to their microtubule interfering effect, stilbenes have another mechanism to induce cell death. Thus, the use of a Chk2 inhibitor in combination with stilbenes may be a viable approach to enhancing the beneficial therapeutic effects of stilbenes.

[4] = system: Tubulin (>99% pure); experiment: tubulin polymerization assay (OD 340 nm); type: biochemical; details: OD340 nm; nocodazole and paclitaxel 10 μM
[5] = water solubility of stilbene and carbamate prodrug (salts and free base); type: physicochemical; details: for solubility: water, 20 °C, 20° C.
Method: Stilbene prodrugs may be made by attaching to a stilbene derivative of interest (e.g. a stilbene derivative with anti-tumor activity), chemical groups (or moieties) that render the stilbene derivative more water soluble than before such a modification is carried out. By “water soluble” we mean that more than 20 mg compound can be fully dissolved in 1 mL of water. Further, the chemical groups that are attached to the stilbene derivative to make the derivative water soluble are labile (i.e. removable) in that, upon exposure to in vitro or in vivo hydrolyzing conditions, the chemical groups are removed or dissociated from the stilbene derivative by hydrolysis, releasing the active, anti-tumor form of the stilbene derivative. The chemical groups which are attached may themselves be biologically active, and are, at least, not biologically injurious to cells or mammals. […] As illustrated, morfolinoethyl-urea, morfolinoethyl-carbamate and triethylene glycol (TEG) groups (5a, 5b, 5c, respectively) may be used for this purpose.

[6] = system: Chk1−/− cells; experiment: cell cycle analysis, Chk1-/- MDA-MB231 derivative; type: cell-based
Method: as §1

COc1cc(/C=C\c2ccc(OC)c(N)c2)cc(OC)c1 [4a, (Z)-5-[2-(3,5-Dimethoxy-phenyl)-vinyl]-2-methoxy-phenylamine]
toxicity to normal bone marrow progenitor cells versus leukemia cells [1]: much less toxic to normal bone marrow progenitor cells
cell cycle of marrow progenitor cells at 0.1 μM ([1]; 0.1 μM, 16 hours): increased the subG0/1 and G2 population slightly
cell cycle of marrow progenitor cells at 0.5 μM ([1]; 0.5 μM, 16 hours): increased the subG0/1 and G2 population slightly
acute toxicity at 100 mg/kg intraperitoneally [2]: no sign of weakness was observed
cell cycle change at 30 nM ([3]; 30 nM): induced some degree of G2 arrest, but the ratio of G1/G2 did not reverse
cell cycle change at 10 nM stilbene 4a or 1 nM CA4 [3]: No change was observed
effect on tubulin polymerization [4]: suppressed polymerization in a dose-dependent manner
water solubility (in words) [5]: limited solubility
solubility ([5]; HCl salt, read-out: water solubility, x HCl): 6000 µg/mL
solubility ([5]; free base, read-out: water solubility, Free base): < 1000 µg/mL
solubility ([5]; oxalate salt, read-out: water solubility, x (COOH)2): < 1000 µg/mL
sensitivity versus MDA-MB231 [6]: more resistant
